Test results taken from patent publication US6440986B2, “HIV Inhibiting pyrimidine derivatives” (Janssen Pharmaceutica, N.V., priority 1998, dated 2002).
Structures can show the parent of a compound that is named as a salt. Where two headings read alike, the source gives them in different places.

Legend:
HIV-1 = assay: in vitro anti-HIV assay: inhibition of the HIV-induced cytopathic effect in MT-4 cells (MTT); format: cell-based; details: dose achieving 50% protection of HIV-infected MT-4 cells against cytopathic effect, OD 540 nm
Protocol: A rapid, sensitive and automated assay procedure was used for the in vitro evaluation of anti-HIV agents. An […] T4-cell line, MT-4, which was previously shown (Koyanagi et al., Int. J. Cancer, 36, 445-451, 1985) to be highly susceptible to and permissive for HIV infection, served as the target cell line. Inhibition of the HIV-induced cytopathic effect was used as the end point. The viability of both HIV- and mock-infected cells was assessed spectrophotometrically via the in situ reduction of 3-(4,5-dimethylthiazol-2-yl)-2,5-diphenyltetrazolium bromide (MTT). […] The percent protection achieved by the compound in HIV-infected cells was calculated by the following formula: [formula]
(§1) whereby (ODT)HIV is the optical density measured with a given concentration of the test compound in HIV-infected cells; (ODC)HIV is the optical density measured for the control untreated HIV-infected cells: (ODC)MOCK is the optical density measured for the control untreated mock-infected cells; all optical density values were determined at 540 nm. […] The ratio of CC50 to IC50 was defined as the selectivity index (SI).

[1] = system: MT-4 cells (mock-infected); assay: cytotoxicity in mock-infected MT-4 cells (MTT); format: cell-based
Protocol: A rapid, sensitive and automated assay procedure was used for the in vitro evaluation of anti-HIV agents. […] Inhibition of the HIV-induced cytopathic effect was used as the end point. The viability of both HIV- and mock-infected cells was assessed spectrophotometrically via the in situ reduction of 3-(4,5-dimethylthiazol-2-yl)-2,5-diphenyltetrazolium bromide (MTT). […] The percent protection achieved by the compound in HIV-infected cells was calculated by the following formula: [formula]
as §1

[2] = 50% cytotoxic concentration, reduces absorbance of mock-infected MT-4 control by 50%, MTT, read-out: CC50

SMILES	IC50 (HIV-1) [µM]	CC50 [1] [µM]	CC50 [1, 2] [µM]
N#Cc1ccc(Nc2nc(Cc3c(Cl)cccc3Cl)cc(NCCCCO)n2)cc1 [Compound 1]	0.027	49.7	
N#Cc1ccc(Nc2nc(Cc3c(Cl)cccc3Cl)cc(NCCO)n2)cc1 [Compound 2]	0.035	> 100	
N#Cc1ccc(Nc2nc(Cc3c(Cl)cccc3Cl)cc(NCC(O)c3ccccc3)n2)cc1 (stereo not shown) [Compound 4]	0.315	> 100	
N#Cc1ccc(Nc2nc(Cc3c(Cl)cccc3Cl)cc(NCCCN3CCCC3=O)n2)cc1 [Compound 5]		56.2	
N#Cc1ccc(Nc2nc(Cc3c(Cl)cccc3Cl)cc(NCCOCCO)n2)cc1 [Compound 6]	0.02	24.4	
CC(C)OCCCNc1cc(Cc2c(Cl)cccc2Cl)nc(Nc2ccc(C#N)cc2)n1 [Compound 7]	0.975	> 100	
COc1cccc(CCNc2cc(Cc3c(Cl)cccc3Cl)nc(Nc3ccc(C#N)cc3)n2)c1 [Compound 8]	8.15	> 100	
N#Cc1ccc(Nc2nc(Cc3c(Cl)cccc3Cl)cc(NCC(O)CO)n2)cc1 (stereo not shown) [Compound 9]	0.037	58.6	
COc1ccc(CCNc2cc(Cc3c(Cl)cccc3Cl)nc(Nc3ccc(C#N)cc3)n2)cc1 [Compound 10]	2.53	> 100	
N#Cc1ccc(Nc2nc(Cc3c(Cl)cccc3Cl)cc(NCc3ccccc3)n2)cc1 [Compound 12]	1.68	55.1	
N#Cc1ccc(Nc2nc(Cc3c(Cl)cccc3Cl)cc(NCCc3cccs3)n2)cc1 [Compound 14]	2.18	89	
N#Cc1ccc(Nc2nc(Cc3c(Cl)cccc3Cl)cc(NO)n2)cc1 [Compound 15, 4-[[4-[(2,6-dichloro-phenyl)methyl]-6-(hydroxyamino)-2-pyrimidinyl]amino]benzonitrile dihydrobromide.pentahydrate]	0.003	9	
N#Cc1ccc(Nc2nc(Cc3c(Cl)cccc3Cl)cc(NCCc3ccccn3)n2)cc1 [Compound 16]	0.389	41.2	
CCCCCCCCCCCC(=O)Nc1cc(Cc2c(Cl)cccc2Cl)nc(Nc2ccc(C#N)cc2)n1 [Compound 18]	2.1	59.9	
N#CCCNc1cc(Cc2c(Cl)cccc2Cl)nc(Nc2ccc(C#N)cc2)n1 [Compound 19]	0.006	53.6	
CCOC(=O)Nc1cc(Cc2c(Cl)cccc2Cl)nc(Nc2ccc(C#N)cc2)n1 [Compound 20]	0.026	36.5	
CC(=O)Nc1cc(Cc2c(Cl)cccc2Cl)nc(Nc2ccc(C#N)cc2)n1 [Compound 21]	0.017	50.6	
CCCC(=O)Nc1cc(Cc2c(Cl)cccc2Cl)nc(Nc2ccc(C#N)cc2)n1 [Compound 22]	0.035	12.2	
N#Cc1ccc(Nc2nc(N)cc(Cc3c(Cl)cccc3Cl)n2)cc1 [Compound 23]	0.001	47.9	
CNc1cc(Cc2c(Cl)cccc2Cl)nc(Nc2ccc(C#N)cc2)n1 [Compound 24]	0.02	54	
Nc1cc(Cc2c(Cl)cccc2Cl)nc(Nc2ccc(Br)cc2)n1 [Compound 27]	0.017		> 20
Nc1nc(Cc2c(Cl)cccc2Cl)cc(Nc2ccc(Br)cc2)n1 [Compound 28]	0.079		> 20
Nc1cc(Cc2c(Cl)cccc2Cl)nc(Nc2ccc(Cl)cc2)n1 [Compound 29]	0.015		> 20
Nc1nc(Cc2c(Cl)cccc2Cl)cc(Nc2ccc(Cl)cc2)n1 [Compound 30]	0.088		> 20
Nc1nc(Cc2c(Cl)cccc2Cl)cc(Nc2ccc(Br)cn2)n1 [Compound 31]	0.024		86.8
Nc1cc(Cc2c(Cl)cccc2Cl)nc(Nc2ccc(Br)cn2)n1 [Compound 32]	0.403		> 100
Nc1cc(Cc2c(Cl)cccc2Cl)nc(Nc2ccc(F)cc2)n1 [Compound 33]	0.042		43.4

SMILES	IC50 (HIV-1) [µM]	CC50 [1] [µM]	CC50 [1, 2] [µM]
Nc1nc(Cc2c(Cl)cccc2Cl)cc(Nc2ccc(F)cc2)n1 [Compound 34]	0.319		57.8
Cc1ccc(Nc2nc(N)cc(Cc3c(Cl)cccc3Cl)n2)cc1 [Compound 35]	0.103		42.3
Cc1ccc(Nc2cc(Cc3c(Cl)cccc3Cl)nc(N)n2)cc1 [Compound 36]	0.323		> 100
Nc1cc(Cc2c(Cl)cccc2Cl)nc(Nc2ccccc2)n1 [Compound 37]	0.443		33.4
Nc1nc(Cc2c(Cl)cccc2Cl)cc(Nc2ccccc2)n1 [Compound 38]	2.45		32.4
N#Cc1ccc(Nc2cc(Cc3c(Cl)cccc3Cl)nc(NCCO)n2)cc1 [Compound 40]	0.253		40.2
CNc1nc(Cc2c(Cl)cccc2Cl)cc(Nc2ccc(C#N)cc2)n1 [Compound 41]	1.99		34.2
N#Cc1ccc(Nc2cc(Cc3c(Cl)cccc3Cl)nc(NCCCO)n2)cc1 [Compound 42]	0.352		35.5
N#Cc1ccc(Nc2cc(Cc3c(Cl)cccc3Cl)nc(NCCCCO)n2)cc1 [Compound 43]	0.603		> 100
N#Cc1ccc(Nc2cc(Cc3c(Cl)cccc3Cl)nc(N)n2)cc1 [Compound 45]	0.01		56.3
Cc1c(Cc2c(Cl)cccc2Cl)nc(N)nc1Nc1ccc(C#N)cc1 [Compound 46]	45.2		> 100
Cc1c(Cc2c(Cl)cccc2Cl)nc(N)nc1Nc1ccc(Br)cc1 [Compound 48]	44.2		> 100
Cc1c(N)nc(Nc2ccc(Br)cc2)nc1Cc1c(Cl)cccc1Cl [Compound 49]	0.058		45.2
N#Cc1ccc(Nc2cc(Oc3c(Cl)cccc3Cl)nc(N)n2)cc1 [Compound 50]	0.518	52	
N#Cc1ccc(Nc2cc(N)nc(Cc3c(Cl)cccc3Cl)n2)cc1 [Compound 51]	0.452	> 100	
Cc1cc(C)c(Nc2ccnc(Nc3ccc(C#N)cc3)n2)c(C)c1 [Compound 53, 4-[[4-[(2,4,6-trimethyl-phenyl)amino]-2-pyrimidinyl]amino]benzonitrile hydrochloride (1:1)]	0.0006		1.3
Cc1cc(Br)cc(C)c1Nc1ccnc(Nc2ccc(C#N)cc2)n1 [Compound 56]	0.0023	1.9	
Cc1cccc(C)c1Nc1ccnc(Nc2ccc(C#N)cc2)n1 [Compound 57]	0.0007	0.8	
N#Cc1ccc(Nc2nccc(Sc3c(Cl)cccc3Cl)n2)cc1 [Compound 59]	0.0012	> 100	
N#Cc1ccc(Nc2nccc(Oc3c(Cl)cc(Cl)cc3Cl)n2)cc1 [Compound 60]	0.29	> 100	
CC(C)c1cc(Br)c(Nc2ccnc(Nc3ccc(C#N)cc3)n2)c(Br)c1 [Compound 62]	0.0032	8.7	
Cc1cc(C)c(Nc2nc(Nc3ccc(C#N)cc3)ncc2C)c(C)c1 [Compound 63]	0.0017	0.3	
Cc1cc(Cl)cc(Cl)c1Oc1ccnc(Nc2ccc(C#N)cc2)n1 [Compound 64]	0.12	> 100	
N#Cc1ccc(Nc2nccc(Nc3c(Cl)cccc3Cl)n2)cc1 [Compound 65]	0.18	0.2	
N#Cc1ccc(Nc2nccc(Nc3c(Cl)cc(F)cc3Br)n2)cc1 [Compound 67]	0.0024	0.4	
Cc1cc(Cl)cc(Cl)c1Nc1ccnc(Nc2ccc(C#N)cc2)n1 [Compound 68]	0.001	1.4	
Cc1cnc(Nc2ccc(C#N)cc2)nc1Nc1c(C)cc(C#N)cc1C [Compound 83]	0.0008		
